# Assay results taken from ChEMBL document CHEMBL1909046, “DrugMatrix in vitro pharmacology data”.
# How the values were obtained:
# [1] = target: Beta-1 adrenergic receptor (Homo sapiens, UniProt P08588); test: DRUGMATRIX: Adrenergic beta1 radioligand binding (ligand: [125I] Cyanopindolol); type: cell membranes, CHO-K1, Membrane; details: Not Active = under 50% inhibition at 10 µM
# B2 bradykinin receptor = target: T1, B2 bradykinin receptor (Homo sapiens, UniProt P30411); type: cell membranes, Membrane; details: chem-1; further: in other assays of this panel Not Active means under 50% inhibition at 10 µM
# T1 sequence (P30411 whole entry): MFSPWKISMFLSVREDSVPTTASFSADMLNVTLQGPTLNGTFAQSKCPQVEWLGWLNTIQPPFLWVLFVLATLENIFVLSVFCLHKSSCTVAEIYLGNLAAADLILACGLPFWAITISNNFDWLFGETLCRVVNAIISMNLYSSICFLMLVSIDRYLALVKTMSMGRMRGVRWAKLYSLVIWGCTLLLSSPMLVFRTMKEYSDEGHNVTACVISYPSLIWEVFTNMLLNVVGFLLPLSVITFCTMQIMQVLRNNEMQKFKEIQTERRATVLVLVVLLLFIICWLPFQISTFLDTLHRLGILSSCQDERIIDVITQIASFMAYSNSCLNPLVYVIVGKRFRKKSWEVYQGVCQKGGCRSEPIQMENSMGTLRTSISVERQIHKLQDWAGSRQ
# [2] = DRUGMATRIX: Serotonin (5-Hydroxytryptamine) 5-HT3 radioligand binding (ligand: [3H] GR-65630); type: cell membranes, Membrane; details: hek293; Not Active = under 50% inhibition at 10 µM
# [3] = DRUGMATRIX: Sigma2 radioligand binding (ligand: [3H] Ifenprodil); type: cell membranes, Rattus norvegicus, Wistar, Brain, Membrane; details: Not Active = under 50% inhibition at 10 µM
# D(4) dopamine receptor = target: T2, D(4) dopamine receptor (Homo sapiens, UniProt P21917); test: DRUGMATRIX: Dopamine D4.2 radioligand binding (ligand: [3H] Spiperone); type: cell membranes, Membrane; details: cho-k1; Not Active = under 50% inhibition at 10 µM
# T2 sequence (P21917 whole entry): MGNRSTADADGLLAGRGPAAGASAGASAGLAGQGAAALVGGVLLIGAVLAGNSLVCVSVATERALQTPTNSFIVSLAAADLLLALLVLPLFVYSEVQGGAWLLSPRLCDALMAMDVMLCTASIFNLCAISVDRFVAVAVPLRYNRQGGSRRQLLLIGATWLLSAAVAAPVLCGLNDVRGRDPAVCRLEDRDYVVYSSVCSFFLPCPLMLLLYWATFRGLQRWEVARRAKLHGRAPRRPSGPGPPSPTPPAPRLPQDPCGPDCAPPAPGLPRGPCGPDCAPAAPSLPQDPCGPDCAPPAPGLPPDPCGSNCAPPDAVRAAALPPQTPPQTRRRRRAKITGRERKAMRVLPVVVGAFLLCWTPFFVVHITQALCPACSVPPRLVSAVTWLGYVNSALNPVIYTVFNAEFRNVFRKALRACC
# [4] = DRUGMATRIX: Imidazoline I2, Central radioligand binding (ligand: [3H] Idazoxan); type: cell membranes, Rattus norvegicus, Wistar, Cerebral cortex, Membrane; details: Not Active = under 50% inhibition at 10 µM
# Cathepsin G = target: T3, Cathepsin G (Homo sapiens, UniProt P08311); type: tissue-based; details: neutrophil;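 further: inhibition of Cathepsin G enzyme activity, tested on an AMC-conjugated peptide substrate; in other assays of this panel Not Active means under 50% inhibition at 10 µM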
# T3 sequence (P08311 whole entry): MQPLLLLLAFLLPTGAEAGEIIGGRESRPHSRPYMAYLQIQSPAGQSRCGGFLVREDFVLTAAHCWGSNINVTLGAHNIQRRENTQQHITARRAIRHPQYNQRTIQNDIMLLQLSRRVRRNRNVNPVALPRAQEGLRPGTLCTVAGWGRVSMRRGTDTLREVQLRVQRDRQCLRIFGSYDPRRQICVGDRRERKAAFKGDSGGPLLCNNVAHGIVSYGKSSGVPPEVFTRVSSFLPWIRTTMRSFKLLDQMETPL
# [5] = target: Mitogen-activated protein kinase 3 (Homo sapiens, UniProt P27361); test: DRUGMATRIX: Protein Serine/Threonine Kinase, ERK1 enzyme inhibition (substrate: Myelin Basic Protein); design: species or system Escherichia coli; details: Not Active = under 50% inhibition at 10 µM
# Chain of Mitogen-activated protein kinase 3 (P27361 whole entry): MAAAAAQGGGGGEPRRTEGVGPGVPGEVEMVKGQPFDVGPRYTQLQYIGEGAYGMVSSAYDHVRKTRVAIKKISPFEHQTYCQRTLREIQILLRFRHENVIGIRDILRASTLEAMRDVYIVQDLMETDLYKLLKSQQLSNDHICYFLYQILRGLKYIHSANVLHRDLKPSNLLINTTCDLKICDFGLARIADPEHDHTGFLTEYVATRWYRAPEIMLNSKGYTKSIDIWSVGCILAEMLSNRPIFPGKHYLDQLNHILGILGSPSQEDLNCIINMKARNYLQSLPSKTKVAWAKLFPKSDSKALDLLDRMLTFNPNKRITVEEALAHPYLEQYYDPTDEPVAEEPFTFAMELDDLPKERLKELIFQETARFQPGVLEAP
# [6] = target: T4, Receptor-type tyrosine-protein phosphatase C (Homo sapiens, UniProt P08575); design: species or system Escherichia coli;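 further: inhibition of CD45 enzyme activity measured using DiFMUP as substrate; in other assays of this panel Not Active means under 50% inhibition at 10 µM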
# T4 sequence (P08575 whole entry): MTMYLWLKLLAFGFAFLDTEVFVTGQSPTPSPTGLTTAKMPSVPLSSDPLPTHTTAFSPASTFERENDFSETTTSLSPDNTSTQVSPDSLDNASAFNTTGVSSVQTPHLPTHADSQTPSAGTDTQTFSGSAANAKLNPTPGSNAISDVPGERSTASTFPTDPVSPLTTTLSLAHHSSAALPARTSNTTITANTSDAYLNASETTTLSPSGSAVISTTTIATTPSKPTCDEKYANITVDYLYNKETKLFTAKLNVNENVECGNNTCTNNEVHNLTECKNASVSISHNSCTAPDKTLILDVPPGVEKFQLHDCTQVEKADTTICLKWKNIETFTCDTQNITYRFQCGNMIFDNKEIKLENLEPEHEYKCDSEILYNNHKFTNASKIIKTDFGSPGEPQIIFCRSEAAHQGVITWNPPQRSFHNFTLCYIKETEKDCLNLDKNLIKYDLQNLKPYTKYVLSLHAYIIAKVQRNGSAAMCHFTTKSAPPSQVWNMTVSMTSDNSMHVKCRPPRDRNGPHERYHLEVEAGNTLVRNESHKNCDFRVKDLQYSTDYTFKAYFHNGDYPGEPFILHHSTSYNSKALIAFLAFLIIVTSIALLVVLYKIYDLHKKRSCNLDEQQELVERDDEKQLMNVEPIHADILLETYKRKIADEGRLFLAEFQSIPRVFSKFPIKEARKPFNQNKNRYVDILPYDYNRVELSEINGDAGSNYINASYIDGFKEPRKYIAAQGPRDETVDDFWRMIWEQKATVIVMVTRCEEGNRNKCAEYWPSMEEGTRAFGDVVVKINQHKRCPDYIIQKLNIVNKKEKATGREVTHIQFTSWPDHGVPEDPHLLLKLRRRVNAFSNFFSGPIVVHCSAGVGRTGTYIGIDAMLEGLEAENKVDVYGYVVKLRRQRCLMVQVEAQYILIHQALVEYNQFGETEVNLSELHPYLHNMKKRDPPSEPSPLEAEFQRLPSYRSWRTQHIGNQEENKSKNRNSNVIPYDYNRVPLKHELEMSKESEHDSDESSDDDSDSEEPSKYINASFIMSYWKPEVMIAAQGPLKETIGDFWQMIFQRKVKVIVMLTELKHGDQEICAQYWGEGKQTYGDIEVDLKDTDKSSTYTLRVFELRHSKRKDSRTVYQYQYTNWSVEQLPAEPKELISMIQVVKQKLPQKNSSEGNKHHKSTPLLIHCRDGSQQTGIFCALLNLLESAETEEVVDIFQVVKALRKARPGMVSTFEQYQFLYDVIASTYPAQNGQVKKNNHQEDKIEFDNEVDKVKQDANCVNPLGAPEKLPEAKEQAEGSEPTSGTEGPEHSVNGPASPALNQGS
# Cytochrome P450 3A4 = Cytochrome P450 3A4 (Homo sapiens, UniProt P08684); details: bti-tn-5b1-4; further: in other assays of this panel Not Active means under 50% inhibition at 10 µM
# Chain of Cytochrome P450 3A4 (P08684 whole entry): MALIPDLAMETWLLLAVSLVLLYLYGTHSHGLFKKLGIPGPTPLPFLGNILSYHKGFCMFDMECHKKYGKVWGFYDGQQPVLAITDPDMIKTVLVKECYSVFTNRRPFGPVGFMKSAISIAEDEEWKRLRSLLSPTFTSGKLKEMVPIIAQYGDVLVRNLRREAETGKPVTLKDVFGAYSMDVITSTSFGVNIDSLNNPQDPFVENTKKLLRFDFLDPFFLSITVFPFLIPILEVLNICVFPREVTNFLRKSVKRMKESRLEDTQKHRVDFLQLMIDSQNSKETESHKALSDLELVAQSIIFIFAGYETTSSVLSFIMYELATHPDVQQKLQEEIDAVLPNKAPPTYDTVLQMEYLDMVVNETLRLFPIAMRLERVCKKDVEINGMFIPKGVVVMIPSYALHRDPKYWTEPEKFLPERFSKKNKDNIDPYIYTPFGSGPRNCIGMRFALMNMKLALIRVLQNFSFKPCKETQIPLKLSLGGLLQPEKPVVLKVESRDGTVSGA
# Chain of Beta-1 adrenergic receptor (P08588 whole entry): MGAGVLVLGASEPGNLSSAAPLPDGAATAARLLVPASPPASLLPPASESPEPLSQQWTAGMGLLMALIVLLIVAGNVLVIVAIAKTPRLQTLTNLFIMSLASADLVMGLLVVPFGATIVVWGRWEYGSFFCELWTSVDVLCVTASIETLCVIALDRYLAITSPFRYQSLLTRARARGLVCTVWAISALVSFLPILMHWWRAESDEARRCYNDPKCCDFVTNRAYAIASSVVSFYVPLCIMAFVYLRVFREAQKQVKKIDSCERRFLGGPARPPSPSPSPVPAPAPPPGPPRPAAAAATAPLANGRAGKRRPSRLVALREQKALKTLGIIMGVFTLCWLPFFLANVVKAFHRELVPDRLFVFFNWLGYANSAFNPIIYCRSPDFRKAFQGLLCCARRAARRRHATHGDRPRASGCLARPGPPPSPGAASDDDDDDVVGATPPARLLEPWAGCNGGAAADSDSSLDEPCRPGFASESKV
SMILES,IC50 ([1]; cho-k1),IC50 (B2 bradykinin receptor),IC50 [2],Ki [2],IC50 [3],Ki [3],IC50 (D(4) dopamine receptor),IC50 [4],Ki [4],IC50 (Cathepsin G),IC50 [5],IC50 [6],IC50 (Cytochrome P450 3A4),Ki (Cytochrome P450 3A4),IC50 ([1]; read-out: IC50),Ki ([1]; read-out: Ki),IC50 ([3]; read-out: IC50),Ki ([3]; read-out: Ki)
CC1=C(CC(=O)O)c2cc(F)ccc2/C1=C\c1ccc([S+](C)[O-])cc1 (stereo not given),Not Active,Not Active,Not Active,Not Active,Not Active,Not Active,Not Active,Not Active,Not Active,Not Active,Not Active,Not Active,Not Active,Not Active,,,,
N[C@H](CSC(=S)NCc1ccccc1)C(=O)O,Not Active,Not Active,Not Active,Not Active,Not Active,Not Active,Not Active,Not Active,Not Active,Not Active,Not Active,Not Active,Not Active,Not Active,,,,
CC(=O)N[C@@H]1[C@H](Oc2c3cc4cc2Oc2ccc(cc2Cl)[C@@H](O[C@@H]2O[C@@H](CO)[C@@H](O)[C@H](O)[C@@H]2NC(C)=O)[C@@H]2NC(=O)[C@H](NC(=O)[C@@H]4NC(=O)[C@H]4NC(=O)[C@@H](Cc5ccc(c(Cl)c5)O3)NC(=O)[C@H](N)c3ccc(O)c(c3)Oc3cc(O)cc4c3)c3ccc(O)c(c3)-c3c(O[C@H]4O[C@H](CO)[C@@H](O)[C@@H](O)[C@@H]4O)cc(O)cc3[C@@H](C(=O)O)NC2=O)O[C@@H](CO)[C@@H](O)[C@@H]1O,Not Active,Not Active,Not Active,Not Active,Not Active,Not Active,Not Active,Not Active,Not Active,Not Active,Not Active,Not Active,Not Active,Not Active,,,,
Clc1ccc2c(c1)C(N1CCNCC1)=Nc1ccccc1O2 [AMOXAPINE],Not Active,Not Active,,,,,Not Active,,,Not Active,Not Active,Not Active,Not Active,Not Active,,,,
COc1cc2c(c(OC)c1OC)-c1ccc(OC)c(=O)cc1[C@@H](NC(C)=O)CC2 [COLCHICINE],Not Active,Not Active,,,,,Not Active,,,Not Active,Not Active,Not Active,,,,,,
CN1CCC(=C2c3ccccc3C=Cc3ccccc32)CC1 [CYPROHEPTADINE],Not Active,Not Active,,,,,Not Active,,,Not Active,Not Active,Not Active,Not Active,Not Active,,,,
CC/C(=C(/CC)c1ccc(O)cc1)c1ccc(O)cc1 [DIETHYLSTILBESTROL],,Not Active,,,,,Not Active,,,Not Active,Not Active,Not Active,Not Active,Not Active,22.1 µM,12.8 µM,,
CC(=O)N1CCN(c2ccc(OCC3COC(Cn4ccnc4)(c4ccc(Cl)cc4Cl)O3)cc2)CC1 (stereo not given) [KETOCONAZOLE],Not Active,Not Active,Not Active,Not Active,,,Not Active,Not Active,Not Active,Not Active,Not Active,Not Active,,,,,15.9 µM,9.79 µM
C=CCN1CC[C@]23c4c5ccc(O)c4O[C@H]2C(=O)CC[C@@]3(O)[C@H]1C5 [NALOXONE],Not Active,Not Active,,,,,Not Active,,,Not Active,Not Active,Not Active,,,,,,
COCCOC(=O)C1=C(C)NC(C)=C(C(=O)OC(C)C)C1c1cccc([N+](=O)[O-])c1 (stereo not given) [NIMODIPINE],Not Active,Not Active,Not Active,Not Active,Not Active,Not Active,Not Active,Not Active,Not Active,Not Active,Not Active,Not Active,,,,,,
CC(C)NCC(O)COc1cccc2ccccc12 (stereo not given) [PROPRANOLOL],,Not Active,,,,,Not Active,,,Not Active,Not Active,Not Active,Not Active,Not Active,,,,
COCCCOc1ccnc(C[S+]([O-])c2nc3ccccc3[nH]2)c1C (stereo not given) [RABEPRAZOLE],Not Active,Not Active,Not Active,Not Active,Not Active,Not Active,Not Active,Not Active,Not Active,Not Active,Not Active,Not Active,Not Active,Not Active,,,,
O=C(c1ccc(OCCN2CCCCC2)cc1)c1c(-c2ccc(O)cc2)sc2cc(O)ccc12 [RALOXIFENE],Not Active,Not Active,Not Active,Not Active,,,Not Active,Not Active,Not Active,Not Active,Not Active,Not Active,Not Active,Not Active,,,0.385 µM,0.237 µM
CC(C)c1nc(CN(C)C(=O)N[C@H](C(=O)N[C@@H](Cc2ccccc2)C[C@H](O)[C@H](Cc2ccccc2)NC(=O)OCc2cncs2)C(C)C)cs1 [RITONAVIR],Not Active,Not Active,Not Active,Not Active,Not Active,Not Active,Not Active,Not Active,Not Active,Not Active,Not Active,Not Active,,,,,,
